Test results published in article doi:10.1101/2025.08.18.25333496, “A Phase 0 Window of Opportunity Trial of LB100, a Protein Phosphatase 2A Inhibitor, in Patients with Recurrent Gliomas” (medRxiv, 2025).
pIC50: −log10 of the molar value. Where two headings read alike, the source gives them in different places.

Tests used:
[1] = clinical; design: species or system human; details: in vivo
Method: Glioma tissue sampling to detect and quantify LB100 was performed post-dose in each patient, with resection time points from the end of the LB100 infusion recorded. After ensuring adequate diagnostic tissue, remaining tissue was used for PK analysis. Briefly, removed tissues were rinsed with saline immediately (to remove LB100-containing blood and avoid falsely elevated LB100 measurements), then divided, flash-frozen, and stored at −80°C for future batch analysis.
This analysis was performed blinded to tumor type.

[2] = molecular target: protein phosphatase 2A (PP2A); details: cited from earlier work
[3] = test system: PP2A; design: method as in Lixte Biotechnology, Investigators Brochure, unpublished; details: mice, brain region with intact BBB; ref Lixte Biotechnology, Investigators Brochure, unpublished; cited from earlier work
[4] = human, in vivo
Method: (§1) In this current trial, a single dose of LB100 was infused over two hours (+/− 15 minutes) starting two to four hours before surgery.
(§2) Blood and plasma samples for PK measurements were also performed on all participants. Samples were collected at the following time points: 1) Pre-dose; 2) End of infusion (2 hours post-start); 3) 30 minutes post LB100 infusion completion; 4) 1 hour post LB-100 infusion completion; 5) 2 hours post LB100 infusion completion; 6) 4 hours post LB100 infusion completion; 7) 8 hours post LB100 infusion completion.
(§3) LB100 concentration in clinical PK samples (plasma and tumor tissue), was quantified using a validated and robust LC-MS/MS assay developed at the NCI that used LB-105 as an internal standard. This analysis was performed blinded to tumor type. Plasma samples were pre-treated with 50 mM NaOH and tissue samples were homogenized in acetonitrile at a concentration of 100 mg/mL Briefly, samples were mixed with aqueous 10 mM triethylamine (TEA) containing internal standard followed by protein precipitation with 0.5% TEA in acetonitrile. Samples were processed alongside calibration and quality control (QC) standards, ranging from 2–1000 ng/mL (~7.5–3700 nM) and 3–10,000 pg/mg (~1.2–3700 nM) for plasma and brain tissue, respectively. […] The analyte and internal standard were chromatographically separated using a Waters Acquity UPLC BEH C18 (1.7-μm, 2.1×50mm) on a Waters Acuity UPLC system (Waters Corp., Milford, MA). A gradient mobile phase consisting of 5 mM ammonium bicarbonate (aq) and acetronitrile was flowed at a rate of 0.5 to 1 mL/min; the injection volume was 5 uL. After chromatographic separation, the compounds were eluted and detected using a AbSciex QTrap 5500 tandem mass spectrometer in positive ion electrospray mode; MRM transitions were m/z 269.1 → 101.0 and 283.2 → 115.1 for LB-100 and LB-105, respectively.
(§4) Plasma PK was analyzed via a non-compartmental approach using Phoenix WinNonlin v8.3 (Certara Corp, Cary, NC) that was validated per FDA 21CFR Part 11 Regulations. The maximum plasma concentration (Cmax) and the time of Cmax (Tmax) were reported as observed values. A rate constant of the terminal phase, λz, was calculated from the concentration-time curve using uniformly weighted least-squares as the estimation procedure and acceptance criteria of i) r^2 > 0, ii) includes >3-time points. […] Estimated pharmacokinetic parameters included half-life (t1/2; inverse of λz), volume of distribution (Vd; dose divided by product of λz and AUCINF), and clearance (CL; dose divided by AUCINF). Drug concentrations in brain tissue samples were reported and % brain penetrance was approximated via the ratio of brain tissue drug concentration to plasma drug concentrations from matched timepoints post-tissue collection.

[5] = in vivo
Method: After LB100 infusion and craniotomy all patients were evaluated in person 1–3 days following surgery and followed for at least 30 days after infusion of LB100 for toxicities and adverse events (AEs). All adverse events, including clinically significant abnormal findings on laboratory evaluations, regardless of severity, were followed until return to baseline or stabilization of event. Adverse events were documented from the first study intervention (study day 1) through the final safety visit (study day 30). Beyond 30 days only adverse events which were serious and related to the study intervention were recorded. The descriptions and grading scales found in the revised NCI Common Terminology Criteria for Adverse Events (CTCAE) version 5.0 were utilized for AE reporting.
During the first post-operative week after infusion with LB100, an EKG, renal function tests and liver function tests were performed. Two to three weeks following discharge from the hospital, all patients were given a physical exam and additional blood testing. At approximately 30 days post-craniotomy patients were questioned to determine whether any new AEs had occurred, and any ongoing AEs were followed up on. Prior to removal from the study, at approximately 30 days following drug infusion, all subjects completed a final safety evaluation.

[6] = design: method as in PMID 28039265; details: dose level above the established safe dose; cited from earlier work
[7] = design: method as in Lixte Biotechnology, Investigators Brochure, unpublished; details: ref Lixte Biotechnology, Investigators Brochure, unpublished, cited from earlier work
[8] = clinical; details: human, in vivo
Method: as §1, §2, §3, §4

[9] = one-time administration equivalent to human maximum tolerated dose

CN1CCN(C(=O)C2C(C(=O)O)[C@H]3CC[C@@H]2O3)CC1 (some centres unmarked) [LB100]
% Brain Pen (ratio of brain:plasma concentrations) ([1]; human): 0.31% (159%) | Kp ([1]; human): 0.0031 | concentration at 5.68 h ([1]; human): 0.51 ng/g | concentration of LB100 in tumor tissue, range ([1]; human): 0 to 0.67 nM | percent of drug penetration into the brain, range ([1]; human): 0% to 1.04% | difference in drug levels between contrast and non-contrast regions of tumor [1]: no significant difference in drug levels | pIC50 ([2]; in glial cell lines, read-out: IC50 of PP2A): 6.40 to 6.70 | pIC50 ([2]; previously established, read-out: minimum IC50 targeting protein phosphatase 2A): 6.70 | PP2A enzymatic activity in the lateral habenula [3]: significantly decrease PP2A enzymatic activity | T1/2 [4]: 1.27 (13%) hr | plasma concentration of LB100 at the time of biopsy, range [4]: 30.81 to 132.26 nM | AEs related to LB100 ([5]; human, 30 days): No AEs were thought to be related to LB100 | total number of AEs ([5]; human, 30 days): 30 | AEs rated as serious (grade 3 or 4) [5]: Four | patients with grade 3 increases in creatinine clearance [6]: 2 of 4 | mean Cmax in plasma ([7]; animal studies): 1110~3664 ng/ml | mean Cmax in the brain ([7]; animal studies): 17.4~43.5 ng/kg | animals with LB100 detected in implanted tumor [7, 9]: 1 of 3 | animals with LB100 detected in normal brain and liver [7, 9]: 2 of 3 | Vd [8]: 21.7 L | clearance [8]: 195 mL/min | AUC(0-inf) ([8]; AUCinf): 414 ng·h/mL | Cmax [8]: 146 ng/mL | Cmax ([8]; range): 95 to 179 ng/mL | half-life ([8]; T1/2): 1.2 h | Tmax ([8]; TMAX): 2.1 h | Tmax ([8]; Tmax, range): 2.07 to 2.63 h | AUC(0-inf) ([8]; plasma drug exposure (AUCINF), range): 325 to 468 ng·h/mL | half-life ([8]; plasma half-life (T1/2), range): 1.09 to 1.46 h
